Test results as given in patent US20240025906A1 (NEURON23, INC., priority 2022, published 2024).
Structures can show the parent of a compound that is named as a salt. Where two headings read alike, the source gives them in different places.

Columns and labels:
TYK2 JH2 = molecular target: T1, TYK2 JH2 (Homo sapiens, UniProt P29597); experiment: TYK2 JH2 binding assay (KINOMEscan KdELECT competitive binding); conditions: TYK2 JH2 domain, read-out: Biochemical TYK2_DiscoverX_JH2_BND_Kd
T1 construct: purchased DiscoverX (KINOMEscan KdELECT service); host or cells: E. coli BL21-derived (T7 phage display) or HEK-293
Outline: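 Competition binding, KdELECT format. Kinase (phage-tagged, E. coli BL21-derived host; or HEK-293, DNA-tagged) + ligand-coated streptavidin beads + cpd, 1 h RT, final DMSO 0.9%. Wash, elute 30 min with 0.5 μM non-biotinylated ligand; qPCR readout. Kd: 11-pt, 3-fold series.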

[1] = tested on: JAK1/TYK2 pSTAT5 (Tyr694/699) in THP-1 cell line; experiment: IFNa-stimulated JAK1/TYK2 pSTAT5 (Tyr694/699) inhibition cellular assay, AlphaLISA; type: cell-based; conditions: THP-1 cells, AlphaLISA (Assay B), read-out: Cellular_THP1_IFNa-pSTATS_TYK2
Outline: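 THP-1 cells (2e4/well) in HBSS preincubated 1 h at 37° C. with compound (final 10000–0.04 nM, 8 points, 6-fold), then stimulated with IFNa (100 ng/mL stock) for 30 min before lysis. pSTAT5 (Tyr694/699) read by AlphaLISA at 615 nm; IC50 from four-parameter logistic fit with bottom fixed at 0 and Hill slope at −1.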

[2] = DiscoverX KINOMEscan KdELECT (Assay A)
[3] = Homo sapiens, IFNa-stimulated pSTAT5 (Tyr694/699)
[4] = IFNa-stimulated pSTAT5 (Tyr694/699)

T1 sequence (P29597 589-875 limits assumed): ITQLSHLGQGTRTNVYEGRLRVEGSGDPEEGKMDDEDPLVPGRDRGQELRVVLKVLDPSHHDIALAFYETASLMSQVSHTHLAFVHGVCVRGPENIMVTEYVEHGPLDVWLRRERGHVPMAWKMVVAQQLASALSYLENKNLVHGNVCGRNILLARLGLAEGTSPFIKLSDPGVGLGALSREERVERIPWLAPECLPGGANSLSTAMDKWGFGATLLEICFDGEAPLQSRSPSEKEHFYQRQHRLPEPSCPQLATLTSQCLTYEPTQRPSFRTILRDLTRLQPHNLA

SMILES | Kd (TYK2 JH2; [2]) | IC50 ([1]; Homo sapiens, IFNa-stimulated) | Kd (TYK2 JH2; KINOMEscan KdELECT (Assay A)) | IC50 [1, 3] | IC50 [1, 4]
CC[C@@H]1C[C@H]1C(=O)Nc1cc2c(-c3nc4ccc(N5CCOCC5)cn4n3)cnc(NC)c2cn1 (single isomer, unassigned) [Example 586] | ≤ 100 nM | ≤ 500 nM |  |  | 
CNc1ncc(-c2nc3ccc(N4CCOCC4)cn3n2)c2cc(NC(=O)[C@@H]3CC34CC4)ncc12 (single isomer, unassigned) [Example 587, formate] | ≤ 100 nM | ≤ 500 nM |  |  | 
CNc1ncc(-c2nc3ccc(N4CCOCC4)cn3n2)c2cc(NC(=O)[C@H]3CC34CC4)ncc12 (single isomer, unassigned) [Example 588, formate] | ≤ 100 nM | ≤ 500 nM |  |  | 
CNc1ncc(C#Cc2ccc3c(c2)OC[C@H](COC)O3)c2cc(NC(=O)C3CC3)ncc12 (single isomer, unassigned) [Example 698] |  | ≤ 500 nM | ≤ 100 nM |  | 
CNc1ncc(C#Cc2ccc3c(c2)OC[C@@H](COC)O3)c2cc(NC(=O)C3CC3)ncc12 (single isomer, unassigned) [Example 699] |  | ≤ 500 nM | ≤ 100 nM |  | 
CNc1ncc(C#Cc2ccc(OC)cn2)c2cc(NC(=O)[C@H]3C[C@H]3C(F)F)ncc12 (single isomer, unassigned) [Example 745] |  | ≤ 500 nM | ≤ 100 nM |  | 
CNc1ncc(C#Cc2ccc(OC)cn2)c2cc(NC(=O)[C@@H]3C[C@@H]3C(F)(F)F)ncc12 (single isomer, unassigned) [Example 746] |  | ≤ 500 nM | ≤ 100 nM |  | 
CNc1ncc(C#Cc2ccc(OC)cn2)c2cc(NC(=O)[C@H]3C[C@H]3C(F)(F)F)ncc12 (single isomer, unassigned) [Example 747] |  | ≤ 500 nM | ≤ 100 nM |  | 
CNc1ncc(C#Cc2cc3ccccn3n2)c2cc(NC(=O)[C@@H]3C[C@@H]3C(F)F)ncc12 (single isomer, unassigned) [Example 754] |  | ≤ 500 nM | ≤ 100 nM |  | 
CNc1ncc(C#Cc2cc3ccccn3n2)c2cc(NC(=O)[C@H]3C[C@H]3C(F)F)ncc12 (single isomer, unassigned) [Example 755] |  | ≤ 500 nM | ≤ 100 nM |  | 
CNc1ncc(C#Cc2ccc(OCC(C)(C)O)cc2)c2cc(NC(=O)[C@@H]3C[C@@H]3C(F)F)ncc12 (single isomer, unassigned) [Example 756] |  | ≤ 500 nM | ≤ 100 nM |  | 
CNc1ncc(C#Cc2ccc(OCC(C)(C)O)cc2)c2cc(NC(=O)[C@H]3C[C@H]3C(F)F)ncc12 (single isomer, unassigned) [Example 757] |  | ≤ 500 nM | ≤ 100 nM |  | 
CNc1ncc(C#Cc2ccc(OC3CN(C(C)=O)C3)cc2)c2cc(NC(=O)[C@H]3C[C@H]3C(F)F)ncc12 (single isomer, unassigned) [Example 776] |  | ≤ 500 nM | ≤ 100 nM |  | 
CNc1ncc(C#Cc2ccc(OC3CN(C(C)=O)C3)cc2)c2cc(NC(=O)[C@@H]3C[C@@H]3C(F)F)ncc12 (single isomer, unassigned) [Example 777] |  | ≤ 500 nM | ≤ 100 nM |  | 
CNc1ncc(/C=C/c2ccc3c(c2)OC[C@H](COC)O3)c2cc(NC(=O)C3CC3)ncc12 (single isomer, unassigned) [Example 790] |  | ≤ 500 nM | ≤ 100 nM |  | 
CNc1ncc(/C=C/c2ccc3c(c2)OC[C@@H](COC)O3)c2cc(NC(=O)C3CC3)ncc12 (single isomer, unassigned) [Example 791] |  | ≤ 500 nM | ≤ 100 nM |  | 
CNc1ncc(C#Cc2ccc(OC)cn2)c2cc(NC(=O)[C@H]3C[C@H]3CF)ncc12 (single isomer, unassigned) [Example 822] |  | ≤ 500 nM | ≤ 100 nM |  | 
CNc1ncc(C#Cc2ccc(OC)cn2)c2cc(NC(=O)[C@@H]3C[C@@H]3CF)ncc12 (single isomer, unassigned) [Example 823] |  | ≤ 500 nM | ≤ 100 nM |  | 
CNc1ncc(-c2nc3cc(N4CCO[C@H](COC)C4)ccc3o2)c2cc(NC(=O)C3CC3)ncc12 (single isomer, unassigned) [Example 919] |  | ≤ 500 nM | ≤ 100 nM |  | 
CNc1ncc(-c2nc3cc(N4CCO[C@@H](COC)C4)ccc3o2)c2cc(NC(=O)C3CC3)ncc12 (single isomer, unassigned) [Example 920] |  | ≤ 500 nM | ≤ 100 nM |  | 
CNc1ncc(-c2nc3cc(N4CCO[C@@H](C(F)(F)F)C4)ccc3o2)c2cc(NC(=O)C3CC3)ncc12 (single isomer, unassigned) [Example 922] |  | ≤ 500 nM | ≤ 100 nM |  | 
CNc1ncc(-c2nc3cc(N4CCO[C@H](C(F)(F)F)C4)ccc3o2)c2cc(NC(=O)C3CC3)ncc12 (single isomer, unassigned) [Example 923] |  | ≤ 500 nM | ≤ 100 nM |  | 

SMILES | Kd (TYK2 JH2; [2]) | IC50 ([1]; Homo sapiens, IFNa-stimulated) | Kd (TYK2 JH2; KINOMEscan KdELECT (Assay A)) | IC50 [1, 3] | IC50 [1, 4]
CNc1ncc(-c2nc3cc(N4CCO[C@@H](C(C)(C)O)C4)ccc3o2)c2cc(NC(=O)C3CC3)ncc12 (single isomer, unassigned) [Example 925] |  | ≤ 500 nM | ≤ 100 nM |  | 
CNc1ncc(-c2nc3cc(N4CCO[C@H](C(C)(C)O)C4)ccc3o2)c2cc(NC(=O)C3CC3)ncc12 (single isomer, unassigned) [Example 926] |  | ≤ 500 nM | ≤ 100 nM |  | 
CNc1ncc(-c2nc3cc(N4CCO[C@H](C(F)F)C4)ccc3o2)c2cc(NC(=O)C3CC3)ncc12 (single isomer, unassigned) [Example 935] |  | ≤ 500 nM | ≤ 100 nM |  | 
CNc1ncc(-c2nc3cc(N4CCO[C@@H](C(F)F)C4)ccc3o2)c2cc(NC(=O)C3CC3)ncc12 (single isomer, unassigned) [Example 936] |  | ≤ 500 nM | ≤ 100 nM |  | 
CNc1ncc(-c2nc3cc(N4CC[C@@H](F)C4)ccc3o2)c2cc(NC(=O)C3CC3)ncc12 (single isomer, unassigned) [Example 944] |  | ≤ 500 nM | ≤ 100 nM |  | 
CNc1ncc(-c2nc3cc(N4CC[C@H](F)C4)ccc3o2)c2cc(NC(=O)C3CC3)ncc12 (single isomer, unassigned) [Example 945] |  | ≤ 500 nM | ≤ 100 nM |  | 
CNc1ncc(-c2nc3cc(C4(C)CCCO4)ccc3o2)c2cc(NC(=O)C3CC3)ncc12 (single isomer, unassigned) [Example 949] |  | ≤ 500 nM | ≤ 100 nM |  | 
CNc1ncc(C#Cc2ccc3c(c2)CC[C@H](CO)O3)c2cc(NC(=O)C3CC3)ncc12 (single isomer, unassigned) [Example 982] |  | ≤ 500 nM | ≤ 100 nM |  | 
CNc1ncc(C#Cc2ccc3c(c2)CC[C@@H](CO)O3)c2cc(NC(=O)C3CC3)ncc12 (single isomer, unassigned) [Example 983] |  | ≤ 500 nM | ≤ 100 nM |  | 
CNc1ncc(C#Cc2ccc3c(c2)CC[C@H](COC)O3)c2cc(NC(=O)C3CC3)ncc12 (single isomer, unassigned) [Example 988] |  | ≤ 500 nM | ≤ 100 nM |  | 
CNc1ncc(C#Cc2ccc3c(c2)CC[C@@H](COC)O3)c2cc(NC(=O)C3CC3)ncc12 (single isomer, unassigned) [Example 989] |  | ≤ 500 nM | ≤ 100 nM |  | 
CNc1ncc(-c2nc3ccc(N4CCOCC4)cn3n2)c2cc(NC(=O)[C@@H]3CC3(F)F)ncc12 (single isomer, unassigned) [Example 994] |  | ≤ 500 nM | ≤ 100 nM |  | 
CNc1ncc(-c2nc3ccc(N4CCOC(COC)C4)cn3n2)c2cc(NC(=O)C3CC3)ncc12 (single isomer, unassigned) [Example 1023] |  |  | ≤ 100 nM | ≤ 500 nM | 
CNc1ncc(-c2nc3ccc(N4CCOC(COC)C4)cn3n2)c2cc(NC(=O)C3CC3)ncc12 (single isomer, unassigned) [Example 1024] |  |  | ≤ 100 nM |  | ≤ 500 nM
CNc1ncc(-c2nc3ccc(N4CCO[C@@H]([C@H](C)O)C4)cn3n2)c2cc(NC(=O)C3CC3)ncc12 (single isomer, unassigned) [Example 1044] |  |  | ≤ 100 nM | ≤ 500 nM | 
CNc1ncc(-c2nc3ccc(N4CCO[C@H]([C@@H](C)O)C4)cn3n2)c2cc(NC(=O)C3CC3)ncc12 (single isomer, unassigned) [Example 1045] |  |  | ≤ 100 nM | ≤ 500 nM | 
CNc1ncc(-c2nc3ccc(N4CCO[C@@H]([C@@H](C)O)C4)cn3n2)c2cc(NC(=O)C3CC3)ncc12 (single isomer, unassigned) [Example 1046] |  |  | ≤ 100 nM | ≤ 500 nM | 
CNc1ncc(-c2nc3ccc(N4CCO[C@H]([C@H](C)O)C4)cn3n2)c2cc(NC(=O)C3CC3)ncc12 (single isomer, unassigned) [Example 1047] |  |  | ≤ 100 nM | ≤ 500 nM | 
CNc1ncc(-c2nc3ccc(N4CCOC(C(C)(C)F)C4)cn3n2)c2cc(NC(=O)C3CC3)ncc12 (single isomer, unassigned) [Example 1049] |  |  | ≤ 100 nM | ≤ 500 nM | 
CNc1ncc(-c2nc3ccc(N4CCOC(C(C)(C)F)C4)cn3n2)c2cc(NC(=O)C3CC3)ncc12 (single isomer, unassigned) [Example 1050] |  |  | ≤ 100 nM |  | ≤ 500 nM
CNc1ncc(-c2nc3cc(N4CCOCC4)ccc3o2)c2cc(NC(=O)[C@H]3C[C@H]3C(F)F)ncc12 (single isomer, unassigned) [Example 1064] |  |  | ≤ 100 nM | ≤ 500 nM | 
